# Source: ChEMBL document CHEMBL1150085, “Gummiferol, a cytotoxic polyacetylene from the leaves of Adenia gummifera” (1995)
# Experiments:
# [1] = Cytotoxicity against human BC1 cells; type: functional; conditions: read-out: ED50 (the source's name)
# HT = test: Cytotoxicity against human HT cells; type: functional; conditions: read-out: ED50 (the source's name)
# Lu1 = test: Cytotoxicity against human Lu1 cells; type: functional; conditions: read-out: ED50 (the source's name)
# SK-MEL-2 = test: Cytotoxicity against human SK-MEL-2 cells; type: functional; conditions: read-out: ED50 (the source's name)
# Col2 = test: Cytotoxicity against human Col2 cells; type: functional; conditions: read-out: ED50 (the source's name)
# KB [2] = test: Cytotoxicity against human KB cells; type: functional; conditions: read-out: ED50 (the source's name)
# KB [3] = test: Cytotoxicity against human vinblastine-positive KB cells; type: functional; conditions: read-out: ED50 (the source's name)
# KB [4] = test: Cytotoxicity against human vinblastine-negative KB cells; type: functional; conditions: read-out: ED50 (the source's name)
# P388 = test: Cytotoxicity against mouse P388 cells; type: functional; conditions: read-out: ED50 (the source's name)
# A-431 = test: Cytotoxicity against human A431 cells; type: functional; conditions: read-out: ED50 (the source's name)
# LNCaP = test: Cytotoxicity against human LNCAP cells; type: functional; conditions: read-out: ED50 (the source's name)
# ZR-75-1 = test: Cytotoxicity against human ZR-75-1 cells; type: functional; conditions: read-out: ED50 (the source's name)
# [5] = Cytotoxicity against human U373 cells; type: functional, U-373MG ATCC; conditions: U373 MG, read-out: ED50 (the source's name)
smiles,measurement,setting,value
CC(=O)OC/C=C/C1OC1C1OC1C#CC#CC#CCO (stereo not drawn) [GUMMIFEROL],EC50,[1],0.2 µg/mL
same,EC50,HT,0.1 µg/mL
same,EC50,Lu1,0.9 µg/mL
same,EC50,SK-MEL-2,1.3 µg/mL
same,EC50,Col2,0.6 µg/mL
same,EC50,KB [2],0.3 µg/mL
same,EC50,KB [3],0.3 µg/mL
same,EC50,KB [4],0.4 µg/mL
same,EC50,P388,0.03 µg/mL
same,EC50,A-431,0.5 µg/mL
same,EC50,LNCaP,0.2 µg/mL
same,EC50,ZR-75-1,0.2 µg/mL
same,EC50,[5],0.05 µg/mL
